Read-outs that look alike come from different tables or passages of the source.
Experiments:
Experiment in all cases: cells
[1] = system: endothelial tube formation in co-cultures of ECFCs and ADSCs treated with VEGF; assay type: cell-based, human
[2] = system: nuclear β-catenin in C2C12 cells; assay type: cell-based
INS-1E cells = assay type: cell-based, rat
NCI-H716 cells = assay type: cell-based, Human
HeLa cells = assay type: cell-based; conditions: read-out: CellCycle G2/M
DLD-1 = assay type: cell-based
SW480 = assay type: cell-based
HCT116 = assay type: cell-based
[3] = system: HCT116 cells treated with a GSK3β inhibitor; assay type: cell-based
Colo320 = assay type: cell-based
HT-29 = assay type: cell-based
RKO = assay type: cell-based; conditions: read-out: Basal_Viability ATP RKO
SNU-C1 = assay type: cell-based
[4] = Mus musculus, C2C12, S2 Table; module primary assay; 20 / 20.1 codes per legend; read-out: Wnt Pathway
[5] = Rattus norvegicus, INS-1E; read-out: Insulin Secretion
[6] = Homo sapiens, NCI-H716; read-out: GLP 1 Secretion
[7] = Homo sapiens, HeLa, S2 Table, HeLa, 20 = no response at highest concentration
[8] = Homo sapiens, DLD-1, basal, DLD-1, read-out: Basal_Viability ATP DLD-1
[9] = Homo sapiens, SW480, basal, SW480, read-out: Basal_Viability ATP SW480
[10] = Homo sapiens, HCT-116, basal, HCT116, read-out: Basal_Viability ATP HCT116
[11] = Homo sapiens, HCT-116, read-out: GSK3b inh pretreated_Viability ATP HCT116
[12] = Homo sapiens, basal, Colo 320, read-out: Basal_Viability ATP Colo 320
[13] = Homo sapiens, basal, HT-29, read-out: Basal_Viability ATP HT-29
[14] = Homo sapiens, SNU-C1, basal, SNU-C1, read-out: Basal_Viability ATP SNU-C1
[15] = IC50 / EC50; endothelial tube area, ADSC/ECFC co-culture; read-out: Anti-Angiogenesis
[16] = IC50 / EC50; C2C12 beta-catenin translocation; read-out: Wnt Pathway
[17] = IC50 / EC50; INS-1E; read-out: Insulin Secretion
[18] = IC50 / EC50; NCI-H716; read-out: GLP 1 Secretion
[19] = basal, read-out: Basal_Viability ATP DLD-1
[20] = basal, read-out: Basal_Viability ATP SW480
[21] = basal, read-out: Basal_Viability ATP HCT116
[22] = GSK3b inhibitor pretreated, read-out: GSK3b inh pretreated_Viability ATP HCT116
[23] = basal, read-out: Basal_Viability ATP Colo 320
[24] = basal, read-out: Basal_Viability ATP HT-29
[25] = basal, read-out: Basal_Viability ATP SNU-C1
[26] = Homo sapiens; read-out: Anti-Angiogenesis
[27] = Homo sapiens, HCT-116, HCT116 pretreated with GSK3b inhibitor, read-out: GSK3b inh pretreated_Viability ATP HCT116
[28] = Homo sapiens, HT-29, read-out: Basal_Viability ATP HT-29

## CCCCOC(=O)c1ccc(N)cc1 [Butyl aminobenzoate]
[1]; Homo sapiens, S2 Table; module primary assay; 20 = no response at highest concentration, 20.1 = inactive in single concentration testing; read-out: Anti-Angiogenesis
  IC50: > 10 µM
[2]; [4]
  EC50: > 10 µM
INS-1E cells; [5]
  EC50: > 10 µM
NCI-H716 cells; [6]
  EC50: > 10 µM
HeLa cells; [7]
  EC50: > 10 µM
DLD-1; [8]
  IC50: 4.56 µM
SW480; [9]
  IC50: 0.586 µM
HCT116; [10]
  IC50: > 20 µM
[3]; [11]
  IC50: 5.61 µM
Colo320; [12]
  IC50: > 20 µM
HT-29; [13]
  IC50: > 20 µM
RKO; Homo sapiens, basal, RKO
  IC50: 0.137 µM
SNU-C1; [14]
  IC50: > 20 µM

## O=[N+]([O-])c1ccc(Oc2ccc(N=C=S)cc2)cc1 [Cantrodifene]
[1]; [15]
  IC50: 3.72 µM
[2]; [16]
  EC50: > 10 µM
INS-1E cells; [17]
  EC50: > 10 µM
NCI-H716 cells; [18]
  EC50: > 10 µM
HeLa cells; IC50 / EC50, HeLa
  EC50: > 10 µM
DLD-1; [19]
  IC50: 2.1 µM
SW480; [20]
  IC50: 1.63 µM
HCT116; [21]
  IC50: 2.77 µM
[3]; [22]
  IC50: 1.47 µM
Colo320; [23]
  IC50: 1.46 µM
HT-29; [24]
  IC50: 1.07 µM
RKO; basal
  IC50: 2.34 µM
SNU-C1; [25]
  IC50: 4.33 µM

## O=C([O-])CN(CCN(CC(=O)[O-])CC(=O)O)CCN(CC(=O)[O-])CC(=O)O.[Gd+3] [Gadopentetic acid]
[1]; read-out: Anti-Angiogenesis
  IC50: > 10 µM
[2]; read-out: Wnt Pathway
  EC50: > 10 µM
INS-1E cells; read-out: Insulin Secretion
  EC50: > 10 µM
NCI-H716 cells; read-out: GLP 1 Secretion
  EC50: > 10 µM
HeLa cells
  EC50: > 10 µM
DLD-1; read-out: Basal_Viability ATP DLD-1
  IC50: > 20 µM
SW480; read-out: Basal_Viability ATP SW480
  IC50: 3.14 µM
HCT116; read-out: Basal_Viability ATP HCT116
  IC50: > 20 µM
[3]; read-out: GSK3b inh pretreated_Viability ATP HCT116
  IC50: 0.896 µM
Colo320; read-out: Basal_Viability ATP Colo 320
  IC50: > 20 µM
HT-29; read-out: Basal_Viability ATP HT-29
  IC50: > 20 µM
RKO
  IC50: 2.96 µM
SNU-C1; read-out: Basal_Viability ATP SNU-C1
  IC50: > 20 µM

## O=C(c1cc(O)c(O)c(O)c1)c1ccc(O)c(O)c1O [Hexahydro-2,3,4,3',4',5'-benzophenone]
[1]; [15]
  IC50: > 10 µM
[2]; [16]
  EC50: > 10 µM
INS-1E cells; [17]
  EC50: > 10 µM
NCI-H716 cells; [18]
  EC50: > 10 µM
HeLa cells; IC50 / EC50, HeLa
  EC50: > 10 µM
DLD-1; [19]
  IC50: 11.9 µM
SW480; [20]
  IC50: 9.95 µM
HCT116; [21]
  IC50: 16.3 µM
[3]; [22]
  IC50: 0.0691 µM
Colo320; [23]
  IC50: 9.38 µM
HT-29; [24]
  IC50: 9.45 µM
RKO; basal
  IC50: 0.192 µM
SNU-C1; [25]
  IC50: 12.8 µM

## O=C1C(I)=CC(=C(c2cc(I)c(O)c(I)c2)c2ccccc2C(=O)O)C=C1I [Iodotetragnost]
[1]; [26]
  IC50: > 10 µM
[2]; Mus musculus, C2C12; read-out: Wnt Pathway
  EC50: > 20 µM
INS-1E cells; [5]
  EC50: > 10 µM
NCI-H716 cells; [6]
  EC50: > 10 µM
HeLa cells; [7]
  EC50: > 10 µM
DLD-1; [8]
  IC50: 0.0132 µM
SW480; [9]
  IC50: 0.112 µM
HCT116; [10]
  IC50: 0.384 µM
[3]; [27]
  IC50: 0.054 µM
Colo320; [12]
  IC50: 0.312 µM
HT-29; [28]
  IC50: 5.73 µM
RKO; Homo sapiens, basal, RKO
  IC50: 0.0373 µM
SNU-C1; [14]
  IC50: 3.76 µM

## CN(C)c1ccc(C(=C2C=CC(=[N+](C)C)C=C2)c2ccccc2)cc1 [malachite green]
[1]; Homo sapiens, read-out: Anti-Angiogenesis
  IC50: 0.0605 µM
[2]; Mus musculus, C2C12, read-out: Wnt Pathway
  EC50: 0.363 µM
INS-1E cells; Rattus norvegicus, INS-1E, read-out: Insulin Secretion
  EC50: > 10 µM
NCI-H716 cells; Homo sapiens, NCI-H716, read-out: GLP 1 Secretion
  EC50: > 10 µM
DLD-1; Homo sapiens, DLD-1, read-out: Basal_Viability ATP DLD-1
  IC50: 0.0218 µM
SW480; Homo sapiens, SW480, read-out: Basal_Viability ATP SW480
  IC50: 0.00922 µM
HCT116; Homo sapiens, HCT-116, read-out: Basal_Viability ATP HCT116
  IC50: 0.0179 µM
[3]; [11]
  IC50: 0.00983 µM
Colo320; Homo sapiens, COLO 320, read-out: Basal_Viability ATP Colo 320
  IC50: 0.161 µM
HT-29; [28]
  IC50: 0.00982 µM
RKO; Homo sapiens, RKO
  IC50: 0.118 µM
SNU-C1; Homo sapiens, SNU-C1, read-out: Basal_Viability ATP SNU-C1
  IC50: 0.0354 µM

## COP(=S)(OC)Oc1ccc(Sc2ccc(OP(=S)(OC)OC)cc2)cc1 [temephos]
[1]; [26]
  IC50: > 10 µM
[2]; [4]
  EC50: > 10 µM
INS-1E cells; [5]
  EC50: > 10 µM
NCI-H716 cells; [6]
  EC50: > 10 µM
DLD-1; [8]
  IC50: > 20 µM
SW480; [9]
  IC50: 0.0118 µM
HCT116; [10]
  IC50: > 20 µM
[3]; [27]
  IC50: > 20 µM
Colo320; [12]
  IC50: > 20 µM
HT-29; [13]
  IC50: > 20 µM
RKO; Homo sapiens, RKO
  IC50: 12.1 µM
SNU-C1; [14]
  IC50: 3.03 µM

From PMC4503722, “Novel Phenotypic Outcomes Identified for a Public Collection of Approved Drugs from a Publicly Accessible Panel of Assays” (PLoS ONE, 2015)
